Measured values: ChEMBL document CHEMBL1201862, “PubChem BioAssay data set” (2004)
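Interpolation was linear, between the two tested concentrations surrounding the appropriate level; five concentrations were tested over 48 hours in 96-well plates. Here, GI50 denotes the concentration required for 50% inhibition of growth.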 The source made the active and inactive calls. No stated cut-off is given here; in the data, active = GI50 up to about 1.1 µM and inactive = higher.

Key:
Assay in all cases: DTP human tumour cell line panel, 48 h
DU-145 = test system: DU-145
SK-MEL-28 = test system: SK-MEL-28
TK-10 = test system: TK-10
A498 = test system: A498
UACC-257 = test system: UACC-257
MOLT-4 = test system: MOLT-4
MDA-MB-231 = test system: MDA-MB-231
NCI-H460 = test system: NCI-H460
CCRF-CEM = test system: CCRF-CEM
IGROV-1 = test system: IGROV-1
U-251 = test system: U-251
RXF 393 = test system: RXF 393
HCC 2998 = test system: HCC 2998
NCI/ADR-RES = test system: NCI/ADR-RES
HOP-62 = test system: HOP-62
HOP-92 = test system: HOP-92
NCI-H522 = test system: NCI-H522
SR = test system: SR
Malme-3M = test system: Malme-3M
MDA-N = test system: MDA-N

Measured: GI50

CN(C)C(=O)OC(Cn1cncn1)(Cn1cncn1)c1ccc(Cl)cc1Cl
inactive: DU-145 > 100 µM | SK-MEL-28 > 100 µM | TK-10 > 100 µM | A498 > 100 µM | UACC-257 > 100 µM | MOLT-4 > 100 µM | MDA-MB-231 > 100 µM | NCI-H460 > 100 µM | CCRF-CEM > 100 µM | IGROV-1 > 100 µM | U-251 > 100 µM | RXF 393 > 100 µM | HCC 2998 > 100 µM | NCI/ADR-RES > 100 µM | HOP-62 > 100 µM | HOP-92 > 100 µM | NCI-H522 > 100 µM

COc1ccc2nc3cc(Cl)ccc3c(Sc3ccc([N+](=O)[O-])cc3)c2c1
inactive: SK-MEL-28 > 10 µM | TK-10 > 10 µM | A498 > 10 µM | UACC-257 > 10 µM | MOLT-4 > 10 µM | NCI-H460 > 10 µM | SR > 10 µM | CCRF-CEM > 10 µM | Malme-3M > 10 µM | IGROV-1 > 10 µM | U-251 > 10 µM | RXF 393 > 10 µM | HCC 2998 > 10 µM | HOP-62 > 10 µM | HOP-92 > 10 µM | NCI-H522 > 10 µM

O=C(Cc1nc2ccccc2c(=O)n1-c1c(Cl)cccc1Cl)c1ccncc1
inactive: SK-MEL-28 21.1 µM | TK-10 > 10 µM | A498 30.5 µM | UACC-257 22.3 µM | MOLT-4 19 µM | NCI-H460 21.4 µM | SR 17.8 µM | CCRF-CEM 16.7 µM | Malme-3M 24.7 µM | IGROV-1 22.4 µM | U-251 29.6 µM | RXF 393 18.5 µM | HCC 2998 22.5 µM | HOP-62 21.3 µM | HOP-92 13.8 µM | NCI-H522 19.6 µM

COC1=C2CC(C)CC(OC)C(O)C(C)/C=C(\C)C(OC(N)=O)C(OC)/C=C\C=C(/C)C(=O)NC(=C(/C=N/N3CCCCC3)C1=O)C2=O (stereo not drawn)
inactive: DU-145 18.3 µM | SK-MEL-28 18.7 µM | TK-10 27.9 µM | A498 23.9 µM | UACC-257 11.9 µM | MOLT-4 2.62 µM | NCI-H460 19.5 µM | SR 2.59 µM | CCRF-CEM 2.55 µM | Malme-3M 15.2 µM | IGROV-1 5.5 µM | U-251 6.4 µM | RXF 393 5.73 µM | HCC 2998 6.7 µM | HOP-62 18.3 µM | HOP-92 15.7 µM | NCI-H522 2.55 µM

COC(=O)C(=O)C(C(=O)C(=O)Nc1ccc(C)cc1)c1nc2ccc(C(=O)c3ccccc3)cc2nc1O (stereo not drawn)
inactive: SK-MEL-28 > 100 µM | TK-10 > 100 µM | A498 > 100 µM | UACC-257 > 100 µM | MDA-MB-231 > 100 µM | NCI-H460 70.8 µM | CCRF-CEM 76.4 µM | Malme-3M > 100 µM | IGROV-1 > 100 µM | U-251 > 100 µM | RXF 393 55 µM | MDA-N 43.4 µM | HCC 2998 92.3 µM | NCI/ADR-RES 22.5 µM | HOP-62 46.9 µM | HOP-92 > 100 µM | NCI-H522 30.5 µM

C[N+](C)(C)CC(=O)N/N=C(/Cc1nc2c3c(ccc2nc1O)C(=O)c1ccccc1C3=O)C(=O)Nc1ccc(Cl)c(Cl)c1
inactive: SK-MEL-28 > 100 µM | TK-10 39.1 µM | A498 33.7 µM | UACC-257 > 100 µM | MOLT-4 19.9 µM | NCI-H460 40.7 µM | SR 16 µM | CCRF-CEM 4.16 µM | Malme-3M > 100 µM | IGROV-1 12.7 µM | RXF 393 23.2 µM | HCC 2998 76.9 µM | HOP-62 35.9 µM | HOP-92 29.6 µM | NCI-H522 22.9 µM

C/C(=C1/N=C(c2cc([N+](=O)[O-])ccc2Cl)N(c2cccc(C)c2)C1=O)c1cc2ccccc2oc1=O
inactive: SK-MEL-28 > 100 µM | TK-10 > 100 µM | A498 > 100 µM | UACC-257 17.3 µM | MOLT-4 21.3 µM | NCI-H460 47.8 µM | SR 30.3 µM | CCRF-CEM 23.3 µM | Malme-3M > 100 µM | IGROV-1 45.1 µM | RXF 393 59.6 µM | HCC 2998 > 100 µM | HOP-62 > 100 µM | HOP-92 76.2 µM | NCI-H522 13.6 µM

COc1ccc(C23OCC(Cc4cc(OC)c(OC)cc42)C3CO)cc1OC (stereo not drawn)
inactive: DU-145 > 100 µM | SK-MEL-28 > 100 µM | TK-10 > 100 µM | A498 > 100 µM | MOLT-4 > 100 µM | MDA-MB-231 > 100 µM | NCI-H460 > 100 µM | SR 29.8 µM | Malme-3M > 100 µM | U-251 > 100 µM | RXF 393 > 100 µM | HCC 2998 > 100 µM | NCI/ADR-RES > 100 µM | HOP-62 > 100 µM | NCI-H522 > 100 µM
